The results in this text go back to article PMC5764437, “Discovery of novel, orally bioavailable, antileishmanial compounds using phenotypic screening” (PLoS Neglected Tropical Diseases, 2017).

Series [1] concerns bloodstream form Lister 427 T. brucei. Kind of series: Growth inhibition of T. brucei bloodstream forms (SYBR Green I). The format is cell-based. As to conditions: Trypanosoma brucei, read-out: T. brucei EC50. As to the method: (§1) L. mexicana (MNYZ/BZ/62/M379) or L. donovani (LdBob strain) parasites expressing the Renilla luciferase gene from a rRNA gene locus were used to infect J774A.1 macrophages. Growth of intracellular amastigotes was measured using a luminescence assay, as detailed previously. The growth inhibitor activities of compounds were tested against bloodstream form Lister 427 T. brucei in 96-well plates containing 1 X 10^5 parasites per well in 0.2 ml HMI-11 medium (Gibco/Thermo Fisher). Compounds (2 μl volumes in DMSO) were added to the parasites using serial 3-fold dilutions to cover a range of concentrations from about 10 μM to 1 nM. After 48 h incubation at 37°C under a humidified 5% CO2 atmosphere, 10 μl of 10% Triton X-100 and 100 X stock SYBR Green I (Sigma-Aldrich) in PBS was added and florescence measured (excitation 497 nm; emission 520 nm) after 1 h incubation in the dark using a Spectra Max Gemini XPS fluorimeter (Molecular Devices). Data were log transformed and EC50 values were determined using GraphPad Prism 6 (GraphPad Software). In the absence of growth inhibiting compounds, the parasites grew from an initial density of 5 X 10^5 cells/mL to ~3 X 10^6 cells/mL.

Series [2] has as its system L. donovani intracellular amastigotes. Kind of series: Growth inhibition of intracellular amastigotes in J774A.1 macrophages (Renilla luciferase luminescence). Format: cell-based. As to conditions: Leishmania donovani. As to the method:
as §1

The test system of series [3] is L. mexicana intracellular amastigotes. Described as above. As to conditions: Leishmania mexicana. The format is cell-based. On the procedure:
as §1
[…]. These were chosen as candidates for further study. From these 230 compounds, we were able to repurchase 113 from commercial vendors. These compounds were characterized for purity by ultra-performance liquid chromatography using ultraviolet spectroscopy and evaporative light scattering detection and identity by mass spectrometry. All validated compounds were profiled for activity against intracellular amastigotes, the disease-causing stage of the life cycle. Intracellular amastigote activity was determined using a strain of L. mexicana in which the Renilla luciferase gene was integrated into the rRNA locus, allowing robust expression for measuring amastigote growth within cultured macrophages. All 113 compounds were applied at 1 μM concentration for 96 h to J774A.1 macrophages infected with L. mexicana luciferase-expressing parasites. […].
Next, we generated dose-response curves for these 55 compounds against intracellular amastigotes and independently against J774A.1 macrophages to establish the relative potency of each compound against the pathogen and its host cell. […]. The nine remaining compounds, each representing a unique chemical scaffold (compounds 1–9, Fig 3), were designated top hits (Fig 1).

Series [4] deals with J774A.1 macrophages. Kind of series: Cytotoxicity to J774A.1 macrophages (dose-response). Format: cell-based. The settings on record: for EC50: Mus musculus. As to the method:
Cytotoxicity of compounds to J774.A1 macrophages was determined by dose-response curves as described previously. In the absence of growth inhibitors or DMSO, the macrophages increased in number ~6-fold over 96 h in Minimum Essential Medium, employed for both macrophage infections and the toxicity assays.

The nature of series [5]: Mouse plasma protein binding assay (Rapid Equilibrium Dialysis). The settings on record: mouse, mouse plasma, pH 7.4; Conc. 4 μM. Format: in vitro ADME. On the procedure: A Rapid Equilibrium Dialysis (RED) Plate (Thermo Scientific, catalog #, PI-90007) was used to determine the percentage of compound binding to mouse plasma proteins (Thermo Scientific, catalog #, 50642085). The positive control for this experiment was propranolol HCl (295.807 g/mol) and the internal standard was warfarin in methanol (2 μM). 10 mM stocks of compound in DMSO were diluted with DMSO and acetonitrile to three different intermediate concentrations: high (2 mM), medium (0.4 mM) and low (0.08 mM) concentration in DMSO:acetonitrile (1:4, v:v). 10 mM stock of propranolol in DMSO were diluted to 0.4 mM concentration in DMSO:acetonitrile (1:4 v:v).
In 10 Eppendorf tubes, the control (10 μL) or each of three compound dilutions (10 μL) were each added to separate aliquots of 990 μL mouse plasma. Potassium phosphate buffer (500 μL, 0.1 M, pH 7.4, 37 °C) was placed in every white well of the RED plate and each plasma/compound mixture was added to each of 3 RED wells (300 μL). The RED plate holds triplicate samples of one control (final concentration […]) and one compound (final concentrations: 20 μM, 4 μM, […]). The RED Plate was sealed and incubated at 37 °C shaking at 250 rpm for 4 hours. After incubation, aliquots (50 μL) from each well in the RED plate were transferred to an assay plate (pION Inc., MA, #110323). In order to create a uniform matrix in every well of the assay plate, plasma (50 μL) was added to each of the wells that already contained buffer and potassium phosphate buffer (50 μL) was added to each of the wells that already contained plasma/compound. Pre-cooled internal standard (300 μL) was added to the assay plate to quench the reaction. The quenched plate was then centrifuged (5810R, Eppendorf, Westbury, NY) at 3000 rpm for 20 minutes.
The percentage of free compound [1] and bound compound [2] was calculated usng the AUC ratio of compound to warfarin from the SIR spectra. For reporting data, % Free = Concentration buffer/Concentration plasma *100 %, and % Bound = 100% - % Free.

Series [6] relates to L. mexicana promastigotes. Kind of series: High-throughput assay for growth inhibition of promastigotes (SYBR Green I). Format: cell-based. On the procedure: Into each well of 384-well microplates (black polystyrene, clear bottom, tissue culture treated, Corning), 15 μl of medium (DME-L [41] plus 100 μM xanthine and 10% heat inactivated fetal calf serum) was dispensed with a liquid dispenser (Matrix Wellmate, Thermo Scientific). Stock compounds, dissolved in DMSO at a fixed concentration of 10 mM, were pin-transferred (V&P Scientific) into the microplate to the desired final concentration using an automated robot arm. To each well of the plates, 15 μl of L. mexicana promastigotes (strain MNYZ/BZ/62/M379, 2 x 10^6/mL) was added with the Wellmate dispenser. Microplates were incubated (Liconic) at 28°C and 5% CO2 for 72 h. After incubation, 10 μl of lysis/dye solution (5X SYBR Green I, 5% Triton X-100 in PBS) was added to each well. Plates were shaken at 1000 rpm, incubated at room temperature for 20 min, and fluorescence signal measured (excitation 485 nm, emission 535 nm) with the Envision plate reader (PerkinElmer).
The initial promastigote screen was performed with the St. Jude Chemical Biology & Therapeutics (CBT) library consisting of 596,414 compounds. Library compounds were filtered by several computational methods to remove those likely to have undesirable physical or biological properties and biased towards oral bioavailability. In this way we focused the collection on compounds most likely to be effective in cellular models of activity, without structural features that would pose a challenge to drug development. In the primary screen, compounds were applied to promastigotes of L. mexicana at a fixed concentration of 10 μM, and parasite proliferation was monitored, following a 72 h incubation, by quantifying total DNA content after lysis using the nucleic acid binding dye SYBR Green I [45].
To confirm the activity of the primary hits and improve confidence that they would be reasonable starting points for drug development, a variety of secondary screens and analyses were employed (Fig 1A). […]. In parallel, mammalian cell growth inhibition was determined using in vitro proliferation assays with normal human fibroblasts (BJ cells). […]. To further triage the hits, we carried out a chemical structure analysis for the 2,703 primary hit compounds utilizing topology mapping and clustering methodology. We identified a wide range of chemotypes, including several scaffolds with potential structure-activity relationships (SARs), based on their dose response activity (Fig 2). Validated hits were then culled by eliminating scaffolds with less favorable drug development properties such as charged planar structures, reactive electrophilic warheads, known pan-assay interference motifs (PAINS), and compounds displaying gross rule of five noncompliance. Finally, we prioritized scaffolds with the possibility of facile chemical modification to generate a substantial number of structural analogs for future SAR and structure-property relationship (SPR) studies.

The mark [7] stands for this setting: bloodstream form, mean ± standard deviation, n = 2.
Setting [8] is: J774.A1, intracellular amastigotes in J774A.1 macrophages, mean ± standard deviation, n = 2, read-out: L. donovani EC50.
The mark [9] stands for this setting: J774.A1, intracellular amastigotes in J774A.1 macrophages, mean ± standard deviation, n = 2, read-out: L. mexicana EC50.
The mark [10] stands for this setting: J774.A1, host macrophage, tested up to 10 μM, mean ± standard deviation, n = 2, read-out: J774A.1 EC50.
[11] abbreviates: Leishmania mexicana, bracketed references point to earlier reports of antileishmanial activity, read-out: EC50 of known inhibitors identified by the HTS.
The mark [12] stands for this setting: bracketed references point to earlier reports of antileishmanial activity, read-out: EC50 of known inhibitors identified by the HTS.

Where a name gives a salt, the structure may show the parent alone. Read-outs that look alike come from different tables or passages of the source. Starred links: 1 amine or outer side, 2 acyl side, 3 side chain; linkers in the order of their positions; H or OH if unused. Positions of bridges follow the written chain, without caps; N, C: chain ends. Non-standard residues stand in square brackets, D forms with d. Residues, ends and D or L forms follow the SMILES beside them. Chains are numbered I, II in the order given. Actinocin(9to1) = Cc1c2oc3c(C)ccc(C(=O)[*:1])c3nc-2c(C(=O)[*:2])c(N)c1=O; NMeV = CN[C@H](C(=O)O)C(C)C; Sar = CNCC(=O)O A value given as a limit tells only on which side of the number the result lay.

As usually defined, the EC50 is the concentration at which the effect is half-maximal. The fraction unbound is the share of the substance not bound to proteins or other matrix.

As to `CC[C@H]1CN2CCc3cc(OC)c(OC)cc3[C@@H]2C[C@@H]1C[C@H]1NCCc2cc(O)c(OC)cc21` [Compound 1, cephaeline], the half-maximal effective concentration (EC50) in series [1] was 800 ± 200 nM; in series [2] (J774.A1, read-out: L. donovani EC50), 2 ± 0.5 nM; in series [3] (J774.A1, read-out: L. mexicana EC50) it was 0.6 ± 0.2 nM; in series [4] (J774.A1, read-out: J774A.1 EC50), 920 ± 900 nM.
As for `Fc1ccccc1Nc1nc(NCc2ccccc2)c2ccccc2n1` [Compound 2], the half-maximal effective concentration (EC50) was 2000 nM in series [1] (setting [7]), 130 ± 20 nM in series [2] (setting [8]), 44 ± 23 nM in series [3] (setting [9]) and more than 10000 nM in series [4] (setting [10]). Moreover, the “Reduction in viability / inhibition of host macrophage J774A.1 in dose-response studies” value in series [4] (up to 10 μM) is given as “no reduction in viability”.
Take `CCN(CC)c1ccc(C2N(C)c3ccccc3N2C)cc1` [Compound 6]: the EC50 in series [1] (setting [7]) is 2000 ± 400 nM; in series [2] (setting [8]) it was 6 ± 7 nM; in series [3] (setting [9]), 5.5 ± 4.9 nM; in series [4] (setting [10]), 3500 ± 700 nM.
Turning to `CCCCCCCCn1c2c(c(=N)c3ccccc31)CCC2` [Compound 7], the EC50 in series [1] (setting [7]) stood at 460 ± 400 nM; in series [2] (setting [8]) it was 11 ± 8 nM; in series [3] (setting [9]), 7 ± 6 nM; in series [4] (setting [10]), 700 ± 300 nM.
In series [5], `CC(C)NCC(O)COc1cccc2ccccc12` (centres unmarked) [Propranolol HCl, reference compound] showed a fraction unbound at 4 h, 4 μM of 0.284.
Take `Cc1c2oc3c(C)ccc(C(=O)N[C@@H]4C(=O)N[C@H](C(C)C)C(=O)N5CCC[C@H]5C(=O)N(C)CC(=O)N(C)[C@@H](C(C)C)C(=O)O[C@@H]4C)c3nc-2c(C(=O)N[C@@H]2C(=O)N[C@H](C(C)C)C(=O)N3CCC[C@H]3C(=O)N(C)CC(=O)N(C)[C@@H](C(C)C)C(=O)O[C@@H]2C)c(N)c1=O` [actinomycin D] (I: T[dV]P[Sar][NMeV] / II: T[dV]P[Sar][NMeV]; ester I:1-I:C, II:1-II:C; linker I:N-II:N via Actinocin(9to1)): the half-maximal effective concentration (EC50) in series [6] (setting [11]) stood at 360 nM.
For `COc1ccc(C[C@H]2NC[C@H](O)[C@H]2OC(C)=O)cc1` [anisomycin], the EC50 in series [6] (setting [12]) came to 580 nM.
As for `CN(C)c1ccc(C(=C2C=CC(=[N+](C)C)C=C2)c2ccc(N(C)C)cc2)cc1` [crystal violet], in series [6] (setting [11]), the concentration giving a half-maximal response (EC50) came to 290 nM.
The same measure, in the same setting: the figure for `CCN(CC)C(=S)SSC(=S)N(CC)CC` [disulfiram] is 500 nM.
Regarding `N=C(N)c1ccc(OCCCCCOc2ccc(C(=N)N)cc2)cc1` [pentamidine], the “Inhibition of proliferation (HTS positive control)” value in series [6] (72 h, primary screen conditions) amounted to 100%. In addition, the half-maximal effective concentration (EC50) in series [6] (Leishmania mexicana, 72 h, median over HTS plates, interquartile range 1.7–3.1, read-out: EC50 of the control per screening plate (median)) turned out to be 2300 nM.
For the compound `CN(C)C(=S)SSC(=S)N(C)C` [thiram], the half-maximal effective concentration (EC50) in series [6] (setting [11]) turned out to be 1770 nM.
With avicin, the EC50 in series [6] (setting [12]) was 1500 nM.
